We go through five compounds from US9113629B2, “4-amino-6-(4-substituted-phenyl)-picolinates and 6-amino-2-(4-substituted-phenyl)-pyrimidine-4-carboxylates and their use as herbicides” (DOW AGROSCIENCES LLC, priority 2013, dated 2015).

Read-outs that look alike come from different tables or passages of the source.

Common to all, as to test: Post-emergent Test III, herbicidal activity in wheat and barley
Common to all, as to type: in vivo

In assay [1] the test system is MATSS: scented mayweed (Matricaria chamomilla), pineappleweed (Matricaria matricarioides). As to conditions: for pest or weed control at 35 g/ha: 35 g ai/ha; for pest or weed control at 70 g/ha: 70 g ai/ha; for GR50 MATSS: dose for 50 percent growth reduction; for GR50 MATSS / GR80 MATSS: probit analysis; for GR80 MATSS: dose for 80 percent growth reduction. The protocol: (§1) Post-emergent Test III. Seeds of the desired test plant species were planted in Sun Gro MetroMix® 306 planting mixture, which typically has a pH of 6.0 to 6.8 and an organic matter content of about 30 percent, in plastic pots with a surface area of 103.2 square centimeters (cm^2). When required to ensure good germination and healthy plants, a fungicide treatment and/or other chemical or physical treatment was applied. The plants were grown for 7-36 days (d) in a greenhouse with an approximate 14 hour (h) photoperiod which was maintained at about 18° C. during the day and 17° C. during the night. Nutrients and water were added on a regular basis and supplemental lighting was provided with overhead metal halide 1000-Watt lamps as necessary. The plants were employed for testing when they reached the second or third true leaf stage.
(§2) A weighed amount, determined by the highest rate to be tested, of each test compound was placed in a 25 mL glass vial and was dissolved in 4 mL of a 97:3 v/v mixture of acetone and DMSO to obtain concentrated stock solutions. […] The concentrated stock solutions obtained were diluted with 20 mL of an aqueous mixture containing acetone, water, isopropyl alcohol, DMSO, Agri-Dex crop oil concentrate, and X-77 surfactant in a 48:39:10:1.5:1.5:0.02 v/v ratio to obtain spray solutions containing the highest application rates. Additional application rates were obtained by serial dilution of 12 mL of the high rate solution into a solution containing 2 mL of 97:3 v/v mixture of acetone and DMSO and 10 mL of an aqueous mixture containing acetone, water, isopropyl alcohol, DMSO, Agri-Dex crop oil concentrate, and X-77 surfactant in a 48:39:10:1.5:1.5:0.02 v/v ratio to obtain ½×, ¼×, ⅛× and 1/16× rates of the high rate. Compound requirements are based upon a 12 mL application volume at a rate of 187 liters per hectare (L/ha). Formulated compounds were applied to the plant material with an overhead Mandel track sprayer equipped with 8002E nozzles calibrated to deliver 187 L/ha over an application area of 0.503 square meters at a spray height of 18 inches (43 cm) above the average plant canopy height. Control plants were sprayed in the same manner with the solvent blank.
(§3) The treated plants and control plants were placed in a greenhouse as described above and watered by subirrigation to prevent wash-off of the test compounds. After 21 d, the condition of the test plants as compared with that of the untreated plants was determined visually and scored on a scale of 0 to 100 percent where 0 corresponds to no injury and 100 corresponds to complete kill.
(§4) By applying the well-accepted probit analysis as described by J. Berkson in Journal of the American Statistical Society, 48, 565 (1953) and by D. Finney in “Probit Analysis” Cambridge University Press (1952), herbicidal injury of a specific compound at various rates can be used to calculate GR20, GR50, GR80 and GR90 values, which are defined as growth reduction factors that correspond to the effective dose of herbicide required to provide plant growth reduction (GR) of 20 percent, 50 percent, 80 percent and 90 percent, respectively. Probit analysis was applied to data collected from multiple dose rates of individual compounds utilizing the procedures explained in the following examples. The analysis of those dose rates is captured in the following tables.

In assay [2] the test system is KCHSC: kochia (Kochia scoparia). As to conditions: for pest or weed control at 35 g/ha: 35 g ai/ha; for pest or weed control at 70 g/ha: 70 g ai/ha; for GR50 KCHSC: dose for 50 percent growth reduction; for GR50 KCHSC / GR80 KCHSC: probit analysis; for GR80 KCHSC: dose for 80 percent growth reduction. The protocol:
as §1, §2, §3, §4

Assay [3] deals with HORSS: barley, including spring and winter (Hordeum vulgare). The note with it: for pest or weed control at 35 g/ha: 35 g ai/ha; for pest or weed control at 70 g/ha: 70 g ai/ha. The procedure:
as §1, §2, §3, §4

Assay [4] deals with TRZSS: wheat, including spring and winter (Triticum aestivum). As to conditions: for pest or weed control at 35 g/ha: 35 g ai/ha; for pest or weed control at 70 g/ha: 70 g ai/ha. The procedure:
as §1, §2, §3, §4

[5] abbreviates: Matricaria chamomilla, post-emergence, 504 h, Table 8, post-emergent, 21 d, read-out: Visual Growth Reduction (%) 21 Days After Application MATSS.
Setting [6] is: Bassia scoparia, post-emergence, 504 h, Table 8, post-emergent, 21 d, read-out: Visual Growth Reduction (%) 21 Days After Application KCHSC.
[7] abbreviates: Hordeum vulgare, post-emergence, 504 h, Table 8, post-emergent, 21 d, read-out: Visual Growth Reduction (%) 21 Days After Application HORSS.
[8] abbreviates: Table 8, dose for 20 percent growth reduction, probit analysis, 21 d.
Setting [9] is: Table 8, dose for 80 percent growth reduction, probit analysis, 21 d.
Setting [10] is: Triticum aestivum, post-emergence, 504 h, Table 8, post-emergent, 21 d, read-out: Visual Growth Reduction (%) 21 Days After Application TRZSS.
[11] abbreviates: Matricaria chamomilla, post-emergence, 504 h, 21 days after application, read-out: Visual Gorowth Reduction (%) 21 days After Application MATSS.
Setting [12] is: Bassia scoparia, post-emergence, 504 h, 21 days after application, read-out: Visual Gorowth Reduction (%) 21 days After Application KCHSC.
Setting [13] is: Hordeum vulgare, post-emergence, 504 h, 21 days after application, read-out: Visual Gorowth Reduction (%) 21 days After Application HORSS.
[14] abbreviates: probit analysis, dose for 20 percent growth reduction (crop), 21 days after application.
Setting [15] is: Triticum aestivum, post-emergence, 504 h, 21 days after application, read-out: Visual Gorowth Reduction (%) 21 days After Application TRZSS.

In the case of `COC(=O)c1nc(-c2ccc(C#N)c(F)c2)c(F)c(N)c1Cl` [Compound 135, methyl 4-amino-3-chloro-6-(4-cyano-3-fluorophenyl)-5-fluoropicolinate], the pest or weed control at 35 g/ha fell in the range of 30 to 44% in assay [1] (setting [5]), 75 to 84% in assay [2] (setting [6]), 0 to 29% in assay [3] (setting [7]) and 30 to 44% in assay [4] (setting [10]). Further, the pest or weed control at 70 g/ha in assay [1] (setting [5]) fell in the range of 30 to 44%; in assay [2] (setting [6]), 75 to 84%; in assay [3] (setting [7]), 30 to 44%; in assay [4] (setting [10]) it was 30 to 44%. Moreover, the pest or weed control at 140 g/ha in assay [1] (Matricaria chamomilla, post-emergence, 504 h, Table 8, 140 g ai/ha, post-emergent, 21 d, read-out: Visual Growth Reduction (%) 21 Days After Application MATSS) is 45 to 59%; in assay [2] (Bassia scoparia, post-emergence, 504 h, Table 8, 140 g ai/ha, post-emergent, 21 d, read-out: Visual Growth Reduction (%) 21 Days After Application KCHSC) it was 75 to 84%; in assay [3] (Hordeum vulgare, post-emergence, 504 h, Table 8, 140 g ai/ha, post-emergent, 21 d, read-out: Visual Growth Reduction (%) 21 Days After Application HORSS), 60 to 74%; in assay [4] (Triticum aestivum, post-emergence, 504 h, Table 8, 140 g ai/ha, post-emergent, 21 d, read-out: Visual Growth Reduction (%) 21 Days After Application TRZSS), 45 to 59%. Also, the “GR50 MATSS” value in assay [1] (Table 8, 21 d) amounted to 125 g ai/ha. Moreover, in assay [1] (Table 8, 21 d), the “GR80 MATSS” value is greater than 140 g ai/ha. Besides, the “GR50 KCHSC” value in assay [2] (Table 8, 21 d) worked out at 3 g ai/ha. Moreover, the “GR80 KCHSC” value in assay [2] (Table 8, 21 d) is on record as 130 g ai/ha. In addition, the “GR20 HORSS” value in assay [3] (setting [8]) was determined as 37 g ai/ha. The “GR80 HORSS” value in assay [3] (setting [9]) is greater than 140 g ai/ha. Moreover, in assay [4] (setting [8]), the “GR20 TRZSS” value was found to be 16 g ai/ha. For the same compound, the “GR80 TRZSS” value in assay [4] (setting [9]) was greater than 140 g ai/ha.

As to `COC(=O)c1nc(-c2ccc(I)c(F)c2)nc(N)c1OC` [Compound 27, Methyl 6-amino-2-(3-fluoro-4-iodophenyl)-5-methoxypyrimidine-4-carboxylate], in assay [1] (setting [5]), the pest or weed control at 35 g/ha fell in the range of 30 to 44% and the pest or weed control at 70 g/ha lay in the range of 30 to 44%. Moreover, in assay [1] (Table 8, 21 d), the “GR50 MATSS” value was 109 g ai/ha and the “GR80 MATSS” value was greater than 140 g ai/ha. For the same compound, in assay [2] (setting [6]), the pest or weed control at 35 g/ha was in the range of 75 to 84% and the pest or weed control at 70 g/ha lay within 75 to 84%. Also, in assay [2] (Table 8, 21 d), the “GR50 KCHSC” value worked out at 18 g ai/ha and the “GR80 KCHSC” value came to 61 g ai/ha. For the same compound, in assay [3] (setting [7]), the pest or weed control at 35 g/ha was in the range of 30 to 44% and the pest or weed control at 70 g/ha fell in the range of 45 to 59%. Further, in assay [3] (setting [8]), the “GR20 HORSS” value is on record as 11 g ai/ha. Further, the “GR20 TRZSS” value in assay [4] (setting [8]) amounted to 11 g ai/ha. In addition, in assay [4] (setting [10]), the pest or weed control at 35 g/ha lay within 60 to 74% and the pest or weed control at 70 g/ha fell in the range of 75 to 84%.

Turning to `Nc1c(Cl)c(C(=O)O)nc(-c2ccc(Br)c(F)c2)c1Cl` [Compound 43, 4-Amino-6-(4-bromo-3-fluorophenyl)-3,5-dichloropicolinic acid], in assay [1] (setting [5]), the pest or weed control at 35 g/ha lay in the range of 85 to 94% and the pest or weed control at 70 g/ha was 95 to 100%. Moreover, in assay [1] (Table 8, 21 d), the “GR50 MATSS” value was 3 g ai/ha and the “GR80 MATSS” value worked out at 7 g ai/ha. For the same compound, in assay [2] (setting [6]), the pest or weed control at 35 g/ha lay in the range of 60 to 74% and the pest or weed control at 70 g/ha was in the range of 85 to 94%. Moreover, in assay [2] (Table 8, 21 d), the “GR50 KCHSC” value is 11 g ai/ha and the “GR80 KCHSC” value is on record as 41 g ai/ha. Further, in assay [3] (setting [7]), the pest or weed control at 35 g/ha was 95 to 100% and the pest or weed control at 70 g/ha lay in the range of 95 to 100%. Besides, in assay [3] (setting [8]), the “GR20 HORSS” value is on record as 1 g ai/ha. For the same compound, the “GR20 TRZSS” value in assay [4] (setting [8]) worked out at 1 g ai/ha. Further, in assay [4] (setting [10]), the pest or weed control at 35 g/ha was 85 to 94% and the pest or weed control at 70 g/ha lay in the range of 95 to 100%.

For `COc1c(N)nc(-c2ccc(I)c(F)c2)nc1C(=O)O` [Compound 37, 6-Amino-2-(3-fluoro-4-iodophenyl)-5-methoxypyrimidine-4-carboxylic acid], in assay [1] (setting [5]), the pest or weed control at 35 g/ha lay within 60 to 74% and the pest or weed control at 70 g/ha was in the range of 60 to 74%. In assay [1] (Table 8, 21 d), the “GR50 MATSS” value was 21 g ai/ha and the “GR80 MATSS” value stood at 77 g ai/ha. Also, in assay [2] (setting [6]), the pest or weed control at 35 g/ha was in the range of 45 to 59% and the pest or weed control at 70 g/ha fell in the range of 60 to 74%. Further, in assay [2] (Table 8, 21 d), the “GR50 KCHSC” value amounted to 34 g ai/ha and the “GR80 KCHSC” value was determined as 119 g ai/ha. Also, in assay [3] (setting [7]), the pest or weed control at 35 g/ha was in the range of 60 to 74% and the pest or weed control at 70 g/ha is 75 to 84%. The “GR20 HORSS” value in assay [3] (setting [8]) is given as 5 g ai/ha. Also, the “GR20 TRZSS” value in assay [4] (setting [8]) is 3 g ai/ha. Also, in assay [4] (setting [10]), the pest or weed control at 35 g/ha lay within 75 to 84% and the pest or weed control at 70 g/ha is 85 to 94%.

With `C=Cc1c(C(=O)O)nc(-c2ccc(C(F)(F)F)c(F)c2)c(F)c1N` [Compound 86], in assay [1] (setting [11]), the pest or weed control at 35 g/ha fell in the range of 60 to 74% and the pest or weed control at 70 g/ha is 60 to 74%. Besides, in assay [1] (21 days after application), the “GR50 MATSS” value is reported as 22 g ai/ha and the “GR80 MATSS” value was 85 g ai/ha. In assay [2] (setting [12]), the pest or weed control at 35 g/ha lay within 75 to 84% and the pest or weed control at 70 g/ha was in the range of 75 to 84%. Moreover, in assay [2] (21 days after application), the “GR50 KCHSC” value turned out to be 12 g ai/ha and the “GR80 KCHSC” value amounted to 55 g ai/ha. In assay [3] (setting [13]), the pest or weed control at 35 g/ha was 30 to 44% and the pest or weed control at 70 g/ha was in the range of 30 to 44%. The “GR20 HORSS” value in assay [3] (setting [14]) amounted to 14 g ai/ha. In addition, in assay [4] (setting [15]), the pest or weed control at 35 g/ha lay in the range of 60 to 74% and the pest or weed control at 70 g/ha was 60 to 74%. In addition, the “GR20 TRZSS” value in assay [4] (setting [14]) was 1 g ai/ha.
